Results as given in patent US20250375405A1, “N-LACTOYL-PHENYLALANINE FOR PREVENTING AND/OR TREATING ISCHEMIC HEART DISEASE AND METHOD FOR PREVENTING AND/OR TREATING ISCHEMIC HEART DISEASE” (Harbin Medical University, priority 2024, published 2025).

How the values were obtained:
[1] = tested on: mouse model of myocardial ischemia; assay: Mouse model of myocardial ischemia (left anterior descending coronary artery ligation), echocardiographic cardiac function; assay type: in vivo, mice; conditions: mouse MI model, Lac-Phe 20 mg/kg intraperitoneally, 1 week later, compared with the MI group
Experimental: The surgery for left anterior descending coronary artery ligation was performed on mice to establish a mouse model of myocardial ischemia (MI group). […] Mice in the MI group were intraperitoneally injected with Lac-Phe (20 mg/kg), and then anesthetized 1 week later. An M-Mode echocardiogram was obtained under the guidance of B-Mode on a Doppler ultrasound Vevo2100 imaging system for small animals, and 10 or more cardiac cycles were recorded. Instrumental analysis software was used to measure various cardiac indicators of mice to assess the cardiac functions of the mice, including a left ventricular internal dimension systole (LVID), a left ventricular end systolic volume (LVESV), an inter-ventricular septum end-stolic thickness (IVS), an E/A ratio, an ejection fraction (EF), and a fraction shortening (FS).

[2] = tested on: human umbilical vein endothelial cells (HUVECs); assay: Viability of hypoxic endothelial cells, CCK8 method; assay type: cell-based; conditions: Lac-Phe final concentrations 5, 10, 20 and 40 μM added 8 hours before hypoxia for 24 hours
Experimental: The Lac-Phe was added to human umbilical vein endothelial cells (HUVECs), and 8 hours later, the HUVECs were placed in a hypoxia incubator and cultured under hypoxia for 24 hours (N2 95%, CO2 5%). The cell viability was evaluated by Cell Counting Kit-8 (CCK8) method for the normal control group (CTRL), hypoxia group (Hypoxia), and Lac-Phe-treated hypoxia group.

[3] = tested on: HUVECs; assay: Apoptosis of hypoxic endothelial cells by flow cytometry; assay type: cell-based, human; conditions: Lac-Phe final concentration 20 μM, added 8 hours before hypoxia for 24 hours
Experimental: The Lac-Phe was added to HUVECs, and 8 hours later, the HUVECs were placed in a hypoxia incubator and cultured under hypoxia for 24 hours (N2 95%, CO2 5%). The cell apoptosis was determined by flow cytometry for the normal control group (CTRL), hypoxia group (Hypoxia), and Lac-Phe-treated hypoxia group.

[4] = tested on: HUVECs; assay: Endothelial cell migration, wound closure assay; assay type: cell-based, human; conditions: Lac-Phe final concentration 10 μM, 12, 24 and 36 hours, versus control with 0.1% DMSO
Experimental: HUVECs were divided into 2 groups: a control group (CTRL, including 0.1% of dimethylsulfoxide (DMSO)), and a Lac-Phe-treated group (final concentration: 10 μM). Cell monolayers were wounded in wells of a cell culture plate along the central axis of each well by an autoclaved white pipette tip, suspended cells in each well were washed with phosphate buffered saline (PBS), and a medium without fetal bovine serum was added to each well. The wounds were photographed with an inverted microscope, that is, the wound area was recorded at 0 hour. The cells were then further incubated in a cell culture incubator at 37° C. for 12 hours, 24 hours, and 36 hours. Then, the wounds were photographed under the inverted microscope, that is, the wound area was recorded. The ImageJ software was used to quantitatively assess the wound closure (FIG. 4A-FIG. 4B).

[5] = tested on: HUVECs; assay: Endothelial cell tube formation assay; assay type: cell-based, human; conditions: Lac-Phe final concentration 20 μM, 24 hours after administration
Experimental: HUVECs were divided into 2 groups: a control group (CTRL, including 0.1% of DMSO), and a Lac-Phe-treated group (final concentration: 20 μM). 24 hours after administration, the endothelial cell tube formation assay was performed.
It can be seen from the experimental results that Lac-Phe can increase the length of branches and the number of branch points formed from HUVECs (FIG. 5A-FIG. 5C). The above results also indicate that Lac-Phe has the potential to promote angiogenesis.

[6] = tested on: Primary mouse cardiomyocytes; assay: Viability of hypoxic cardiomyocytes, CCK8 method; assay type: cell-based; conditions: Lac-Phe final concentrations 10 μM and 20 μM, hypoxia treatment for 24 hours
Experimental: Primary mouse cardiomyocytes were divided into the following 4 groups: a control group (CTRL, including 0.1% of DMSO), a hypoxia group (a hypoxia treatment was performed for 24 hours), and hypoxia+Lac-Phe groups (cardiomyocytes were treated with Lac-Phe at final concentrations of 10 μM and 20 μM, respectively, and a hypoxia treatment was performed for 24 hours). The viability of cardiomyocytes was assayed by the CCK8 method.
It can be seen from the experimental results that Lac-Phe has the function of protecting cardiomyocytes against hypoxic injury.

[7] = tested on: Macrophages (RAW264.7); assay: LPS-induced pro-inflammatory cytokine expression in macrophages, qRT-PCR; assay type: cell-based; conditions: LPS 100 ng/ml, Lac-Phe final concentration 20 μM, 24 hours
Experimental: Macrophages (RAW264.7) were divided into the following 3 groups: a control group (CTRL, including 0.1% of DMSO), a lipopolysaccharide (LPS)-treated group (LPS-induced inflammatory responses in macrophages, a concentration: 100 ng/ml), and an LPS+Lac-Phe-treated group (Lac-Phe was added to LPS-induced macrophages at a final concentration of 20 μM). 24 hours after administration, RNA was extracted from cells in each group, and expression levels of pro-inflammatory cytokines IL-6 and TNFα in cells in each group were determined by quantitative real-time polymerase chain reaction (qRT-PCR). […] The above results also indicate that Lac-Phe has the anti-inflammatory potential.

[8] = tested on: experimental mice; conditions: supplementation of Lac-Phe, earlier studies; cited from earlier work

C[C@H](O)C(=O)N[C@@H](Cc1ccccc1)C(=O)O [Lac-Phe, N-lactoyl-phenylalanine]
cardiac function (LVID, LVESV, IVS, E/A ratio, EF, FS) by echocardiogram [1]: significant improvement effect on the cardiac function | cell viability of hypoxic HUVECs [2]: significantly improved | number of apoptotic HUVECs [3]: significantly reduced | migration of endothelial cells (wound closure) [4]: promoting the migration of endothelial cells | length of branches formed from HUVECs [5]: increase | number of branch points formed from HUVECs [5]: increase | viability of hypoxic cardiomyocytes [6]: significantly alleviate the hypoxic injury of cardiomyocytes | expression level of pro-inflammatory cytokine IL-6 [7]: significantly decreased | expression level of pro-inflammatory cytokine TNFα [7]: significantly decreased | food intake of experimental mice [8]: effectively reduce the food intake
